From patent publication US4665053A, “Peptide derivatives, the preparation and their use as elastase inhibitors” (Centre National de la Recherche Scientifique, priority 1983, dated 1987)
Residues, ends and D or L forms follow the SMILES beside them. *: point of attachment. Oleoyl = CCCCCCCC/C=C\CCCCCCCC(=O)*

Tests used:
hog pancreatic elastase = target: T1, hog pancreatic elastase (Sus scrofa, UniProt P00772); assay: Inhibition of purified pancreatic elastase, hydrolysis of synthetic paranitroanilide substrates; type: biochemical; conditions: Pancreatic elastase 4×10^-9 M; molar ratio inhibitor/enzyme 4 × 10^4; 15 minutes pre-incubation
T1 construct: Purified elastases employed: hog pancreatic elastase (120 U/mg); host or cells: pancreas, by the enzyme's name only
Procedure: (§1) Purified elastases employed: hog pancreatic elastase (120 U/mg) and purified human leucocytic elastase starting from the spleen.
(§2) Molar concentration of these enzymes: pancreatic elastase: 4×10^-9 M; leucocytic elastase: 10×10^-9 M.
(§3) The enzymatic activity of these elastases is followed by hydrolysis of specific synthetic substrates: N-succinoyltrialanine paranitroanilide, acetyl-bis alanylprolyl-alanine paranitroanilide at a final concentration of 1.25 mM in a Tris/HCl buffer, pH=8-8.6. The variation in optical density at 410 nm is followed directly in a Beckman type Acta C III spectrophotometer.
(§4) In the inhibition tests, the oleoyl compounds are pre-incubated 15 minutes with the elastases before determing the residual enzymatic activities.

[1] = target: T2, human leucocytic elastase (Homo sapiens, UniProt P08246); assay: Inhibition of purified leucocytic elastase, hydrolysis of synthetic paranitroanilide substrates; type: biochemical; conditions: for Percent inhibition: Leucocytic elastase 10×10^-9 M, molar ratio inhibitor/enzyme 4 × 10^4, 15 minutes pre-incubation; for elastase inhibitor (conclusion in words): conclusion on elastases in general
T2 construct: purified human leucocytic elastase starting from the spleen; from tissue; host or cells: human spleen
T2 sequence (P08246 30-267): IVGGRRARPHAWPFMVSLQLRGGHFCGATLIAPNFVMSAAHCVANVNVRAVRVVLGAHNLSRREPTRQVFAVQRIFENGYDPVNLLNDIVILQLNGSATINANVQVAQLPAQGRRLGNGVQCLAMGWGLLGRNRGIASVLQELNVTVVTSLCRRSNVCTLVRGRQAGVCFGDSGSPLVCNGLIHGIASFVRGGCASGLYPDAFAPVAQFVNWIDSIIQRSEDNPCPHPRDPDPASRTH
Procedure: as §1, §2, §3, §4

pancreatic elastase [2] = target: T3, pancreatic elastase (Sus scrofa, UniProt P00772); assay: In vivo inhibition of degradation of cutaneous elastic fibers induced by intradermal injection of pancreatic elastase; set-up: host or cells: exogenous enzyme injected into rabbit skin; conditions: rabbit skin, intradermal pretreatment, histology and quantitative morphometry
Procedure: 2. In vivo study of the inhibiting action of Oleoyl-bis-alanyl-proline-alanine towards the enzymatic degradation of cutaneous elastic fibers induced by intradermal injection of pancreatic elastase
For these tests, young Garenne rabbits (1 month) have been employed. 3 types of intradermal injections (volume: 0.25 ml; solvent: phosphate buffer, pH 7.0) have been performed on the backs of the test animals.
1. Control injection: injection of 0.25 ml of phosphate buffer only;
2. Injection of hog pancreatic elastase: 10 micrograms (1.2 units […]) in 0.25 ml of buffer; and
3. Injections of 50-250 micrograms of Ol--(Ala)2 --Pro--Ala (8×10^-8 to 3×10^-7 mole) in 0.25 ml of buffer followed by an injection at the same site of 10 micrograms (1.2 units, 4×10^-10 mole) of pancreatic elastase in 0.25 ml of buffer.
Different samples of rabbit skin are then treated in histology in order to permit visualization of elastic fibers.
The histologic observation and studies of quantitative morphometry reveal: […]

pancreatic elastase [3] = target: T3, pancreatic elastase; assay: Resistance of pretreated radiolabelled elastin to hydrolysis by pancreatic elastase; type: biochemical, hog; conditions: elastin pretreated 24 hours, washed, then 0.05 mg pancreatic elastase; molar ratio inhibitor/enzyme 5 × 10^4
Procedure: (1c) Elastin pretreated with these substances is partially resistant to enzymatic hydrolysis by the elastases.
For these tests, elastin has been radiolabelled with tritium borohydride NaBH4, specific activity: 1.7×10^5 cmp/mg.
1 mg of elastin is treated with […] of a solution of different compounds in 1 ml of Tris HCl buffer, pH-8.0, for 24 hours; the mixture is centrifuged and the insoluble elastin washed with 1 ml of buffer. 0.05 mg of pancreatic elastase is then added and hydrolysis of the polymer is quantified by measurement of the radioactive peptides liberated during the course of the hydrolysis.

T3 sequence (P00772 27-266): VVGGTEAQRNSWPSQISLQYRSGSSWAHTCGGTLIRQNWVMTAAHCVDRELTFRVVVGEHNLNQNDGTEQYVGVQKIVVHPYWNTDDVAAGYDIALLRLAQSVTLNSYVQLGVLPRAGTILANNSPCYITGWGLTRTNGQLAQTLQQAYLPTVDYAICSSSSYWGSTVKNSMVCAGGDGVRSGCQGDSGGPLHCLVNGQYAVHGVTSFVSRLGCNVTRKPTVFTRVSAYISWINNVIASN
T1 sequence (P00772 27-266): as above

| Percent inhibition (hog pancreatic elastase) | Percent inhibition [1] | elastase inhibitor (conclusion in words) [1] | elastic tissue preserved (pancreatic elastase [2]; molar ratio inhibitor/enzyme 2×10^2) | elastic tissue preserved (pancreatic elastase [2]; molar ratio inhibitor/enzyme 10^3) | Percent inhibition relative to samples without pretreatment (pancreatic elastase [3]) | Compound |
| --- | --- | --- | --- | --- | --- | --- |
| 15% | 5% | act as elastase inhibitors | 40-60% | 60-80% | – | CCCCCCCC/C=C\CCCCCCCC(=O)N[C@@H](C)C(=O)N[C@@H](C)C(=O)N1CCC[C@H]1C(=O)N[C@@H](C)C(=O)O [Ol(Ala)2 Pro Alanine, Oleoyl-L-Alanyl-L-Alanyl-L-Prolyl-L-Alanine] (Oleoyl-AAPA-OH) |
| – | – | – | – | – | 0% | CC(C)[C@H](NC(=O)[C@@H]1CCCN1C(=O)[C@H](C)NC(=O)[C@H](C)N)C(=O)O [H(Ala)2 Pro Valine, L-Alanyl-L-Alanyl-L-Prolyl-L-Valine, reference compound] (H-AAPV-OH) |
| 85% | 90% | act as elastase inhibitors | – | – | 98% | CCCCCCCC/C=C\CCCCCCCC(=O)N[C@@H](C)C(=O)N[C@@H](C)C(=O)N1CCC[C@H]1C(=O)N[C@@H](C)C=O [Ol(Ala)2 Pro Alaninal, Oleoyl-L-Alanyl-L-Alanyl-L-Prolyl-L-Alaninal] (Oleoyl-AAPA-aldehyde) |
| – | 51% | act as elastase inhibitors | – | – | 46% | CCCCCCCC/C=C\CCCCCCCC(=O)N[C@@H](C)C(=O)N[C@@H](C)C(=O)N1CCC[C@H]1C(=O)N[C@H](C(=O)O)C(C)C [Ol(Ala)2 Pro Valine, Oleoyl-L-Alanyl-L-Alanyl-L-Prolyl-L-Valine] (Oleoyl-AAPV-OH) |
| – | – | – | – | – | 0% | C[C@H](N)C(=O)N[C@@H](C)C(=O)N1CCC[C@H]1C(=O)N[C@@H](C)C(=O)O [H(Ala)2 Pro Alanine, L-Alanyl-L-Alanyl-L-Proyl-Alanine, reference compound] (H-AAPA-OH) |
